According to US7678799B2 (Teva Pharmaceutical Industries Ltd., priority 2003, dated 2010):
Counter-ions that a name gives are not always drawn. Each block holds one compound with its values, some of them ahead of it.

What was measured:
[1] = Storage stability at 25, 40 and 55° C., crystal form by XRD; assay type: physicochemical
Source text: (§1) Ziprasidone HCl Form M, however, converts to the anhydrous form under heating (see table 1 and FIG. 8) or exposure to 0% relative humidity (see table 6 and FIG. 10).
(§2) This crystalline form may be sesquihydrate.
(§3) X-Ray powder diffraction data were obtained using by method known in the art using a SCINTAG powder X-Ray diffractometer model X'TRA equipped with a solid state detector. Copper radiation of 1.5418 Å was used. A round aluminum sample holder with round zero background quartz plate, with cavity of 25(diameter)*0.5(dept) mm. Detection limit: 5%.

[2] = Storage at 0% relative humidity, crystal form by XRD; assay type: physicochemical; conditions: for transformed into Form M upon exposure to 0% relative humidity: 0% humidity, prolonged periods (such as 3 weeks)
Source text: (§4) In addition, no more than 5% of Form A transforms into Form M during heating and also during exposure to 0% relative humidity.
as §1, §2, §3

[3] = Specific surface area measurement (BET, Coulter SA3100); assay type: physicochemical; conditions: for Specific surface area: BET
Source text: Preferably, the SSA is about 5 to about 20 m^2/g.
Specific surface area measurement: • Instrument: Coulter SA3100 • Degassing: without • Sensitivity: high • Calculation: BET • Type: multipoint • Points: 10 • Sample cell: 9 and 12cm^3

[4] = Heating of crystalline ziprasidone HCl forms, crystal form by XRD; assay type: physicochemical; conditions: for Crystal form after heating at 80-105° C. overnight: HCl
Source text: as §4, §3

[5] = Slurry of Form A in water or ethanol, transformation to Form M; assay type: physicochemical
[6] = Equilibration of ziprasidone HCl form E at different relative humidities for 22 days (TGA, XRD); assay type: physicochemical; conditions: for TGA weight loss (water uptake) / Crystal form: 22 days
Procedure: The slurry temperature is preferably at least about 40° C. when using THF.
as §3
TGA analysis was done using a Mettler M3 meter. The weight of the samples was about 10 mg; the samples were scanned at a rate of 10° C./min from 25° C. to 200° C. The oven was constantly purged with nitrogen gas at a flow rate of 40 ml/min. Standard 70 μl alumina crucibles covered by lids with 1 hole were used.

[7] = cited from earlier work

transforms into Form M upon storage ([1]; 25, 40 and 55° C. for at least 3 months): No more than 5%
transformed into Form M upon exposure to 0% relative humidity ([2]; listed as solid crystalline ziprasidone HCl having a water content of about 4.6% to about ): No more than 5%
SMILES: O=C1Cc2cc(CCN3CCN(c4nsc5ccccc45)CC3)c(Cl)cc2N1 [Crystalline ziprasidone HCl having a water content of 4.6-6.]

Specific surface area ([3]; cell volume = 9 cm^3, HCl): 3.908 m^2/g
Specific surface area ([3]; cell volume = 9 cm^3, listed as Repetition of U.S. Pat. No. 6,150,366 procedure (comparative example 15), HCl): 3.908 m^2/g
SMILES: O=C1Cc2cc(CCN3CCN(c4nsc5ccccc45)CC3)c(Cl)cc2N1 [Example 15, ziprasidone HCl, reference compound]

Specific surface area ([3]; cell volume = 9 cm^3, HCl): 5.461 m^2/g
Specific surface area ([3]; cell volume = 9 cm^3, listed as Sample prepared according to example 16, HCl): 5.461 m^2/g
SMILES: O=C1Cc2cc(CCN3CCN(c4nsc5ccccc45)CC3)c(Cl)cc2N1 [Example 16, ziprasidone HCl]

Specific surface area ([3]; cell volume = 12 cm^3, HCl): 14.646 m^2/g
Specific surface area ([3]; cell volume = 12 cm^3, listed as Sample prepared according to example 17, HCl): 14.646 m^2/g
SMILES: O=C1Cc2cc(CCN3CCN(c4nsc5ccccc45)CC3)c(Cl)cc2N1 [Example 17, ziprasidone HCl]

Specific surface area ([3]; cell volume = 12 cm^3, HCl): 18.831 m^2/g
Specific surface area ([3]; cell volume = 12 cm^3, listed as Sample prepared according to example 18, HCl): 18.831 m^2/g
SMILES: O=C1Cc2cc(CCN3CCN(c4nsc5ccccc45)CC3)c(Cl)cc2N1 [Example 18, ziprasidone HCl]

Specific surface area ([3]; cell volume = 9 cm^3, HCl): 11.335 m^2/g
Specific surface area ([3]; cell volume = 9 cm^3, listed as Sample prepared according to example 19, HCl): 11.335 m^2/g
SMILES: O=C1Cc2cc(CCN3CCN(c4nsc5ccccc45)CC3)c(Cl)cc2N1 [Example 19, ziprasidone HCl]

temperature of heating without a change in the crystal structure [4]: up to 140 °C
Crystal form after heating at 80-105° C. overnight [4]: Form A
Form A transformed into Form M during heating ([4]; heating): no more than 5%
transformed into Form M upon storage under accelerated aging conditions ([1]; 40° C., 75% RH, at least about 6 months): no more than 5%
transformed into Form M upon exposure to 0% relative humidity ([2]; HCl): no more than 5%
Crystal form upon storage at 0% relative humidity ([2]; HCl): Form A
specific surface area (SSA) ([3]; as measured by BET, general statement): higher than 4 m^2/g
transforms to Form M ([5]; ethanol slurry): 95%
Form A transformed into Form M ([5]; slurried in water): no more than 5%
SMILES: O=C1Cc2cc(CCN3CCN(c4nsc5ccccc45)CC3)c(Cl)cc2N1 [Form A, ziprasidone HCl]

TGA weight loss (water uptake) ([6]; RH 0%): 5.3%
TGA weight loss (water uptake) ([6]; RH 20%): 7.2%
TGA weight loss (water uptake) ([6]; RH 40%): 4.8%
TGA weight loss (water uptake) ([6]; RH 60%): 5.0%
Crystal form ([6]; RH 80%): M + A
TGA weight loss (water uptake) ([6]; RH 80%): 9.2%
Crystal form ([6]; RH 100%): M + A + amorphous
crystal form after exposure to relative humidity ([6]; relative humidity of about 20% to about 60% for about 22 days): Form A
SMILES: O=C1Cc2cc(CCN3CCN(c4nsc5ccccc45)CC3)c(Cl)cc2N1 [Form E, ziprasidone HCl]

Crystal form after heating at 80-105° C. overnight [4]: Anhydrous
Crystal form upon storage at 0% relative humidity ([2]; HCl): Anhydrous
SMILES: O=C1Cc2cc(CCN3CCN(c4nsc5ccccc45)CC3)c(Cl)cc2N1 [Form M, ziprasidone HCl, reference compound]

Specific surface area ([3]; cell volume = 9 cm^3, HCl): 3.909 m^2/g
SMILES: O=C1Cc2cc(CCN3CCN(c4nsc5ccccc45)CC3)c(Cl)cc2N1 [Repetition of U.S. Pat. No. 5,312,925 Example 2] [ziprasidone HCl, reference compound]

Specific surface area ([3]; cell volume = 9 cm^3, HCl): 2.135 m^2/g
SMILES: O=C1Cc2cc(CCN3CCN(c4nsc5ccccc45)CC3)c(Cl)cc2N1 [Repetition of U.S. Pat. No. 6,150,366 Example 10] [ziprasidone HCl, reference compound]

SMILES: O=C1Cc2cc(CCN3CCN(c4nsc5ccccc45)CC3)c(Cl)cc2N1 [Ziprasidone HCl]
solubility in water [7]: 0.08 mg/mL
